Experimental data reported in patent US4150970A, “Growth regulator for plants” (Board of Trustees of Michigan State University, priority 1977, dated 1979).
Converted amounts (≈) assume the structure as drawn.

Key:
Solubility = format: physicochemical
[1] = system: Barley callus cell culture; assay: Growth of barley callus cell culture (Example XIX); format: cell-based, interspecific cross of Hordeum vulgare and Hordeum jubatum
Procedure: Cell cultures were separately grown in disposable petri dishes.
5. Barley (interspecific cross of Hordeum vulgare and Hordeum jubatum)
The cultures were grown on the basic medium of mineral salts described by Linsmaier and Skoog (Physiol. Plant, […] (1965)). Vitamins and hormones varied for each tissue (Table X-1) to maintain the tissues in an undifferentiated state. For all of the tissues inositol was 100 mg/liter and agar 1%. Sucrose was 3% for all but the bean which was 2%.
Callus was produced from pith for tobacco, potato and tomato. Bean callus was produced from hypocotyl sections and barley callus from immature ovarian tissue. Subcultures were maintained on the appropriate media.
Stock solutions of triacontanol were prepared at a concentration of 100 μg/ml. The solvent used was glass distilled benzene. The lower concentrations were obtained by serial dilutions. Treatments were applied to 4.5 cm Whatman #1 filter paper disks in 100 μl aliquots. Controls received 100 μl of glass distilled benzene. The solvent was evaporated for approximately 15 minutes and the filter papers were then placed on the agar medium.
Callus tissue was then broken into pieces of approximately the same size (10 mg) and placed in the petri dishes on the treated filter paper (one piece per dish). For experiments conducted in the light the intensity was approximately 2.0 microwatts/cm^2 -namometer. Fresh weight measurements were made after 12 days of growth.

IR-8 rice seedlings [2] = assay: Growth and water uptake of IR-8 rice seedlings (Example IV); format: in vivo; conditions: for Dry Wt. per plant / Leaf Area per plant / Water Uptake per leaf area / Water Uptake per plant: 10 μg/liter
Procedure: (§1) Rice seed cv. IR-8, or Starbonnet was surface treated with 0.1 percent mercuric chloride and planted in 77 cc plastic cups containing vermiculite and watered with one-fourth Hoagland's nutrient solution containing 3 mM of nitrogen at pH 5.0. After 10 days, seedlings were transplanted to 220 cc specimen cups wrapped in aluminum foil and containing 180 cc of the same Hoagland's nutrient solution. Four seedlings were suspended in the solution with a sponge rubber disc. The plants were grown under a 8 h night at 25° C. and a 16 h day at 30° C. with 21 and 8 μwatts per cm^2 in the blue and red spectra respectively. In the test with varying light intensity the high light intensity was 30 13 and the low intensity was 15 and 8 μwatts per cm^2 for the blue and red spectra respectively. The nutrient solution was renewed every 2 or 3 days. After one week the plants were sorted for size and similar sized plants assigned to the same block for the experiment. Prior to the initiation of a test the plants in each cup were assigned treatment numbers by use of a random number table. […] Sixteen hours prior to a test the foil wrapped cups were tared, and filled with one-half Hoaglands solution containing 6 mM nitrogen. Eighteen μl of chloroform or chloroform containing 1.8 μg triacontanol were placed on 2 cm^2 of Whatman No. 1 filter papers, air dried and placed in the specimen cups. This concentration of 10 μg triacontanol/liter was used for all tests described in the following Examples except where specifically indicated to the contrary. Immediately prior to the test the cups were all brought up to 180 ml. including a set of cups without plants to measure evaporation.
Water uptake was measured by weighing the cups after removal of the plants and subtracting the tare and the water evaporated. For tests continued for more than one day, the solution used was measured every 3 days and new Hoagland's added and the pH maintained at 5.0 with sulfuric acid.
(§2) The plants were disected at harvest into shoots and roots. The expanded leaves were cut at the ligule and the newest leaf at the point it entered the sheath. The surface area of expanded leaves were measured using a Lambda Model LI-3000 planimeter. The plants were dried to constant weight in an oven at 100° C. and the roots, expanded leaves, and sheaths were weighed separately.
Four to 6 replicates were used in each experiment in a randomized complete block design. The data were submitted to analysis of variance. Means were compared by use of the L.S.D. except where there was only one degree of freedom for treatment. In these instances the F value from the analysis of variance was used for comparison of means.
To determine the effect of triacontanol on growth and water uptake of IR-8 rice seedlings, the seedlings were prepared as above explained. Alternate seedlings were treated with no triacontanol or with a concentration of 10 μg triacontanol per liter as above set forth. Leaf area, dry weight and water uptake were determined for each plant at 0 time and at 8, 24, 72 and 216 hour intervals.

[3] = system: Heinz 1350 tomato seedlings; assay: Tomato seedlings in nutrient culture, two application methods (Table XIII); format: in vivo
Source text: These tests were run to determine the response of "Heinz 1350" tomato seedlings to applications of triacontanol in nutrient culture, in two different application methods.

IR-8 rice seedlings [4] = assay: Growth analysis (NAR, RGR, LAR) of IR-8 rice seedlings (Example V); format: in vivo
Procedure: as §1, §2
Growth analysis was conducted according to Evans (1972). The Net Assimulation Rate (NAR) is the increase in plant weight per unit of leaf area over time interval where: W=total weight per plant in mg, T=time in days, and L=leaf area in cm^2. [formula]
The relative growth rate (RGR) is the increase in plant weight per unit of original weight over a time interval and is obtained by: [formula]
The leaf area ratio is the ratio of leaf area to […] over a time interval. [formula]
IR-8 rice seedlings were grown as above explained and were tested at 8 hour, 24 hour, 72 hour, and 216 hour intervals. Control (no treatment) plants are indicated by "0" and triacontanol treated plants are indicated by "+" in Table V. The Net Assimulation Rate (NAR), the Relative Growth Rate (RGR) and the Lead Area Ratio (LAR) was determined for each plant at each interval.

plants = assay: Plant growth regulation (general statement); format: in vivo; conditions: crops
[5] = printed 10.0 g triacontanol, 12 days
[6] = 10 μg per liter, nutrient solution

Question: Which “solubility in alcohol, qualitative” value (Solubility; alcohol) does the source give for `CCCCCCCCCCCCCCCCCCCCCCCCCCCCCCO` [Triacontanol, 1-triacontanol] here?
Answer: Its value is “soluble in alcohol”.

Question: What about the “solubility in ether and benzene, qualitative” value (Solubility; ether and benzene) of the same molecule?
Answer: The value was “very soluble in ether and benzene”.

Question: And the “solubility in water, qualitative” value (Solubility; water)?
Answer: Its value is “relatively water insoluble”.

Question: What about the solubility (Solubility; water, read-out: solubility limit in water) of the same molecule?
Answer: Its solubility is about 0.3 µg/mL (≈ 0.684 µM).

Question: And the “growth of in vitro cell cultures” value ([1]; barley)?
Answer: Its value is “significant increases in growth”.

Question: What about the “% of control” value [1, 5] of the same molecule?
Answer: Its value is 167 % of control.

Question: What about the Fresh weight [1, 5] of the same molecule?
Answer: Its Fresh weight is 35.0.

Question: And the “time within which dry weight of entire plant significantly increased” value (IR-8 rice seedlings [2]; [6])?
Answer: Its value is at most 3 days.

Question: What about the “time within which leaf area significantly increased” value (IR-8 rice seedlings [2]; [6]) of the same molecule?
Answer: Its value is at most 8 h.

Question: What about the “Dry Wt. per plant” value (IR-8 rice seedlings [2]; 8 hours) of the same molecule?
Answer: The value was 53.4 mg.

Question: And the “Leaf Area per plant” value (IR-8 rice seedlings [2]; 8 hours)?
Answer: Its value is 8.2 cm^2.

Question: And the “Water Uptake per leaf area” value (IR-8 rice seedlings [2]; 8 hours)?
Answer: The value was 0.25 ml/cm^2 leaf area.

Question: What about the “Water Uptake per plant” value (IR-8 rice seedlings [2]; 8 hours) of the same molecule?
Answer: The value was 2.0 mL.

Question: And the “Dry Wt. per plant” value (IR-8 rice seedlings [2]; 24 hours)?
Answer: The value was 58.6 mg.

Question: And the “Leaf Area per plant” value (IR-8 rice seedlings [2]; 24 hours)?
Answer: Its value is 9.0 cm^2.

Question: What about the “Water Uptake per leaf area” value (IR-8 rice seedlings [2]; 24 hours) of the same molecule?
Answer: The value was 0.35 ml/cm^2 leaf area.

Question: And the “Water Uptake per plant” value (IR-8 rice seedlings [2]; 24 hours)?
Answer: The value was 3.2 mL.

Question: What about the “Dry Wt. per plant” value (IR-8 rice seedlings [2]; 72 hours) of the same molecule?
Answer: Its value is 81.7 mg.

Question: What about the “Leaf Area per plant” value (IR-8 rice seedlings [2]; 72 hours) of the same molecule?
Answer: Its value is 13.7 cm^2.

Question: And the “Water Uptake per leaf area” value (IR-8 rice seedlings [2]; 72 hours)?
Answer: Its value is 1.34 ml/cm^2 leaf area.

Question: What about the “Water Uptake per plant” value (IR-8 rice seedlings [2]; 72 hours) of the same molecule?
Answer: Its value is 18.4 mL.

Question: What about the “Dry Wt. per plant” value (IR-8 rice seedlings [2]; 216 hours) of the same molecule?
Answer: Its value is 204.0 mg.

Question: What about the “Leaf Area per plant” value (IR-8 rice seedlings [2]; 216 hours) of the same molecule?
Answer: Its value is 22.4 cm^2.

Question: What about the “Water Uptake per leaf area” value (IR-8 rice seedlings [2]; 216 hours) of the same molecule?
Answer: Its value is 2.92 ml/cm^2 leaf area.

Question: And the “Water Uptake per plant” value (IR-8 rice seedlings [2]; 216 hours)?
Answer: Its value is 65.5 mL.

Question: And the Dry wt ([3]; filter paper, 0.01)?
Answer: The Dry wt was 382 mg/seedling.

Question: What about the Dry wt ([3]; filter paper, 0.10) of the same molecule?
Answer: The Dry wt was 430 mg/seedling.

Question: And the Dry wt ([3]; foliar, 0.01)?
Answer: The Dry wt was 405 mg/seedling.

Question: What about the Dry wt ([3]; foliar, 0.10) of the same molecule?
Answer: The Dry wt was 407 mg/seedling.

Question: What about the “LAR (Leaf Area Ratio)” value (IR-8 rice seedlings [4]; 0-8 hours) of the same molecule?
Answer: The value was 0.16.

Question: And the “NAR (Net Assimulation Rate)” value (IR-8 rice seedlings [4]; 0-8 hours)?
Answer: The value was 3.39 mg plant wt per cm^2 per day.

Question: And the “RGR (Relative Growth Rate)” value (IR-8 rice seedlings [4]; 0-8 hours)?
Answer: The value was 0.52 mg dry weight per mg original.

Question: And the “LAR (Leaf Area Ratio)” value (IR-8 rice seedlings [4]; 9-24 hours)?
Answer: The value was 0.15.

Question: What about the “NAR (Net Assimulation Rate)” value (IR-8 rice seedlings [4]; 9-24 hours) of the same molecule?
Answer: Its value is 0.90 mg plant wt per cm^2 per day.

Question: What about the “RGR (Relative Growth Rate)” value (IR-8 rice seedlings [4]; 9-24 hours) of the same molecule?
Answer: The value was 0.14 mg dry weight per mg original.

Question: And the “LAR (Leaf Area Ratio)” value (IR-8 rice seedlings [4]; 25-72 hours)?
Answer: Its value is 0.16.

Question: And the “NAR (Net Assimulation Rate)” value (IR-8 rice seedlings [4]; 25-72 hours)?
Answer: The value was 1.03 mg plant wt per cm^2 per day.

Question: And the “RGR (Relative Growth Rate)” value (IR-8 rice seedlings [4]; 25-72 hours)?
Answer: The value was 0.17 mg dry weight per mg original.

Question: And the “LAR (Leaf Area Ratio)” value (IR-8 rice seedlings [4]; 73-216 hours)?
Answer: The value was 0.13.

Question: What about the “NAR (Net Assimulation Rate)” value (IR-8 rice seedlings [4]; 73-216 hours) of the same molecule?
Answer: Its value is 1.15 mg plant wt per cm^2 per day.

Question: What about the “RGR (Relative Growth Rate)” value (IR-8 rice seedlings [4]; 73-216 hours) of the same molecule?
Answer: Its value is 0.15 mg dry weight per mg original.

Question: And the “net assimilation (NAR) greater than control plants” value (IR-8 rice seedlings [4]; first 8 hour and subsequent 16 hour period)?
Answer: The value was 37%.

Question: And the “application rate that substantially increases crop growth” value (plants)?
Answer: Its value is at least 0.4 grams per acre.
